Source: the supplement of paper PMC10883282
± gives the standard deviation of the averaged measurements.

Test system: SK-LMS-1
Assay: relative viability vs DMSO control (72 h) (fraction); higher = more viable cells
In short: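 Sarcoma cell lines in 384-well plates, seeded to reach 80–90% confluence, were given compound after 24 h and kept 72 h at 37 °C, 5% CO2, with 0.1% DMSO vehicle and a 5 µM positive control. Relative viability came from ATPLite as percent growth, averaged over up to triplicate wells. On the rescaled values, 1 equals full and 0 equals none.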

Structure (SMILES) | relative viability (0.00017 µM) | relative viability (0.00051 µM) | relative viability (0.00152 µM) | relative viability (0.00457 µM) | relative viability (0.01372 µM) | relative viability (0.04115 µM) | relative viability (0.1235 µM) | relative viability (0.3704 µM) | relative viability (1.111 µM) | relative viability (3.333 µM) | relative viability (10 µM)
CCN1CCN(Cc2ccc(Nc3ncc(F)c(-c4cc(F)c5nc(C)n(C(C)C)c5c4)n3)nc2)CC1 [Abemaciclib] | 1.03 ± 0.012 | 1.05 ± 0.019 | 1.05 ± 0.057 | 1.02 ± 0.033 | 1.04 ± 0.024 | 1.01 ± 0.021 | 0.945 ± 0.037 | 0.9498 ± 0.0093 | 0.926 ± 0.043 | 0.88 ± 0.042 | 0.873 ± 0.02
CC(C)NC(=O)C1CCC(n2c(NC(=O)c3ccc(F)cc3)nc3ccc(CN4CCC(C(C)(C)O)CC4)cc32)CC1 (stereo not drawn) [Belizatinib] | 1.05 ± 0.024 | 1.06 ± 0.021 | 1.06 ± 0.039 | 1.07 ± 0.04 | 1.07 ± 0.069 | 1.11 ± 0.046 | 1.09 ± 0.023 | 1.04 ± 0.074 | 0.949 ± 0.05 | 0.758 ± 0.018 | 0.38 ± 0.021
CC[C@H](Nc1ncnc2[nH]cnc12)c1nc2cccc(F)c2c(=O)n1-c1ccccc1 [Idelalisib] | 1.02 ± 0.019 | 1.02 ± 0.046 | 1.02 ± 0.084 | 1.01 ± 0.028 | 0.991 ± 0.034 | 1.02 ± 0.041 | 0.972 ± 0.049 | 0.929 ± 0.035 | 0.838 ± 0.049 | 0.71 ± 0.03 | 0.618 ± 0.025
CC(C)(C)c1cc(NC(=O)Nc2ccc(-c3cn4c(n3)sc3cc(OCCN5CCOCC5)ccc34)cc2)no1 [Quizartinib] | 1.05 ± 0.018 | 1.07 ± 0.038 | 1.07 ± 0.029 | 1.03 ± 0.042 | 1.06 ± 0.043 | 1.05 ± 0.04 | 1.06 ± 0.018 | 0.979 ± 0.04 | 0.932 ± 0.019 | 0.832 ± 0.045 | 0.528 ± 0.029
Cc1cnc(Nc2ccc(OCCN3CCCC3)cc2)nc1Nc1cccc(S(=O)(=O)NC(C)(C)C)c1 [Fedratinib] | 1.01 ± 0.035 | 1 ± 0.068 | 1.04 ± 0.041 | 1.08 ± 0.062 | 1.04 ± 0.012 | 1.01 ± 0.042 | 0.99 ± 0.018 | 0.904 ± 0.034 | 0.7315 ± 0.0026 | 0.407 ± 0.011 | 0.0111 ± 0.0012
CC1(C)CNc2cc(NC(=O)c3cccnc3NCc3ccncc3)ccc21 [Motesanib] | 1.04 ± 0.042 | 1.02 ± 0.013 | 1.024 ± 0.0066 | 1.02 ± 0.016 | 1.06 ± 0.025 | 1.03 ± 0.033 | 1.02 ± 0.04 | 1.04 ± 0.027 | 0.99 ± 0.037 | 0.986 ± 0.017 | 0.925 ± 0.02
Nc1cc(C(F)(F)F)c(-c2cc(N3CCOCC3)nc(N3CCOCC3)n2)cn1 [Buparlisib] | 1.02 ± 0.031 | 0.9986 ± 0.0078 | 1.01 ± 0.035 | 1.02 ± 0.013 | 1.01 ± 0.038 | 0.9304 ± 0.0067 | 0.825 ± 0.018 | 0.686 ± 0.015 | 0.3771 ± 0.0013 | 0.148 ± 0.0057 | 0.102 ± 0.0085
Cc1cc(C)c(/C=C2\C(=O)Nc3ccccc32)[nH]1 [Semaxanib] | 0.927 ± 0.045 | 0.907 ± 0.044 | 0.897 ± 0.025 | 0.878 ± 0.033 | 0.897 ± 0.053 | 0.874 ± 0.039 | 0.872 ± 0.02 | 0.894 ± 0.018 | 0.905 ± 0.027 | 0.871 ± 0.033 | 0.811 ± 0.013
CCc1cc2c(cc1N1CCC(N3CCOCC3)CC1)C(C)(C)c1[nH]c3cc(C#N)ccc3c1C2=O [Alectinib] | 1.06 ± 0.056 | 1.1 ± 0.043 | 1.08 ± 0.041 | 1.1 ± 0.027 | 1.12 ± 0.018 | 1.08 ± 0.06 | 1.119 ± 0.0081 | 1.12 ± 0.0046 | 1.1 ± 0.019 | 1.11 ± 0.021 | 1.08 ± 0.016
Cn1cnc2c(F)c(Nc3ccc(Br)cc3F)c(C(=O)NOCCO)cc21 [Binimetinib] | 1.11 ± 0.03 | 1.16 ± 0.045 | 1.13 ± 0.034 | 1.07 ± 0.073 | 1 ± 0.011 | 0.879 ± 0.01 | 0.725 ± 0.039 | 0.646 ± 0.038 | 0.61 ± 0.016 | 0.484 ± 0.011 | 0.375 ± 0.028
C=CC(=O)Nc1cccc(Oc2nc(Nc3ccc(N4CCN(C)CC4)cc3)nc3ccsc23)c1 [Olmutinib] | 1.06 ± 0.047 | 1.08 ± 0.013 | 1.07 ± 0.044 | 1.076 ± 0.006 | 1.09 ± 0.029 | 1.06 ± 0.015 | 1.08 ± 0.013 | 1.05 ± 0.04 | 0.976 ± 0.033 | 0.843 ± 0.016 | 0.113 ± 0.03
CN1CCN(c2ccc3nc(-c4c(N)c5c(F)cccc5[nH]c4=O)[nH]c3c2)CC1 [Dovitinib] | 1.08 ± 0.053 | 1.09 ± 0.049 | 1.1 ± 0.037 | 1.14 ± 0.043 | 1.09 ± 0.063 | 1.12 ± 0.022 | 1.11 ± 0.015 | 1.07 ± 0.035 | 0.907 ± 0.017 | 0.654 ± 0.021 | 0.407 ± 0.0099
O=C(Cc1ccc(-c2ccc(OCCN3CCOCC3)cc2)cn1)NCc1ccccc1 [KX2-391] | 1.03 ± 0.047 | 1.02 ± 0.02 | 1.05 ± 0.019 | 1 ± 0.038 | 0.99 ± 0.038 | 0.704 ± 0.034 | 0.537 ± 0.023 | 0.361 ± 0.0063 | 0.338 ± 0.021 | 0.344 ± 0.018 | 0.333 ± 0.0098
C[C@@H]1COCCN1c1cc(-c2ccnn2C)c2ccnc(-c3ccn[nH]3)c2n1 | 0.9973 ± 0.0066 | 0.992 ± 0.064 | 0.989 ± 0.033 | 1 ± 0.051 | 1 ± 0.024 | 0.928 ± 0.056 | 0.785 ± 0.035 | 0.571 ± 0.016 | 0.371 ± 0.025 | 0.271 ± 0.0038 | 0.234 ± 0.0024
CNC(=O)c1cc(Oc2ccc(NC(=O)Nc3ccc(Cl)c(C(F)(F)F)c3)c(F)c2)ccn1 [Regorafenib] | 1.12 ± 0.046 | 1.11 ± 0.018 | 1.12 ± 0.082 | 1.11 ± 0.03 | 1.17 ± 0.053 | 1.08 ± 0.073 | 1.11 ± 0.079 | 1.05 ± 0.036 | 0.938 ± 0.066 | 0.719 ± 0.035 | 0.0852 ± 0.017
Cc1ccc(NC(=O)c2ccc(CN3CCN(C)CC3)cc2)cc1Nc1nc(-c2cccnc2)cs1 [Masitinib] | 1.03 ± 0.013 | 1.05 ± 0.031 | 1.03 ± 0.022 | 1.02 ± 0.029 | 1.02 ± 0.029 | 1.04 ± 0.03 | 1.01 ± 0.018 | 1.008 ± 0.0068 | 0.953 ± 0.051 | 0.605 ± 0.0079 | 0.103 ± 0.0046
CNC(=O)c1ccc(-c2cnc3ncc(Cc4ccc5ncccc5c4)n3n2)cc1F [Capmatinib] | 1.02 ± 0.019 | 1 ± 0.07 | 0.987 ± 0.015 | 0.882 ± 0.031 | 0.617 ± 0.047 | 0.536 ± 0.0061 | 0.532 ± 0.0098 | 0.53 ± 0.013 | 0.512 ± 0.012 | 0.496 ± 0.017 | 0.5154 ± 0.005
CCCS(=O)(=O)Nc1ccc(F)c(C(=O)c2c[nH]c3ncc(-c4ccc(Cl)cc4)cc23)c1F [Vemurafenib] | 0.994 ± 0.053 | 0.988 ± 0.079 | 1.01 ± 0.081 | 1.06 ± 0.053 | 1.03 ± 0.028 | 0.979 ± 0.06 | 1.02 ± 0.013 | 0.959 ± 0.01 | 0.855 ± 0.033 | 0.667 ± 0.018 | 0.697 ± 0.1
